For the series the following is noted: method [a]: LC-MS at pH 2.7, 0.1% formic acid in water / acetonitrile, linear gradient 10% to 95% acetonitrile.

Protocol: Measurement of log P values was performed according EEC directive 79/831 Annex V.A8 by HPLC (High Performance Liquid Chromatography) on reversed phase columns with the following methods:
^[a] measurement of LC-MS was done at pH 2.7 with 0.1% formic acid in water and with acetonitrile (contains 0.1% formic acid) as eluent with a linear gradient from 10% acetonitrile to 95% acetonitrile.

Regarding `CCCC(=O)C(C#N)=C(NC(C)CCc1ccccc1)c1cn(C)nc1C(F)F` (racemic) [Compound 128], the LogP is 3.83^[a].

For the molecule `CCC(=O)C(C#N)=C(NC(C)C1CC1)c1cccnc1Cl` (centres unmarked) [Compound 22], the LogP is 2.88^[a].

With `CCCC(=O)C(C#N)=C(NC(C)COC)c1cc(C)nn1C(F)F` (centres unmarked) [Compound 95], the LogP was 3.13^[a].

For the molecule `CC(C)OCC(=O)C(C#N)=C(NC(C)C(C)C)c1cccnc1Cl` (centres unmarked) [Compound 19], the LogP was 3.19^[a].

Take `CC(C)C(C)NC(=C(C#N)C(=O)CCl)c1cccnc1Cl` (centres unmarked) [Compound 45]: the LogP was 3.02^[a].

Consider `CC(NC(=C(C#N)C(=O)C1CCCC1)c1cn(C)nc1C(F)F)C1CC1` (centres unmarked) [Compound 21], for which the LogP is 3.58^[a].

`CCNCC(=O)C(C#N)=C(NC(C)C(C)C)c1cccnc1Cl` (centres unmarked) [Compound 57]: the LogP is 1.68^[a].

On to `CCCC(=NOC)C(C#N)=C(NC(C)C(C)C)c1cn(C)nc1C(F)F` (centres unmarked) [Compound 79], for which the LogP was 4.24^[a].

`CC(C)C(C)NC(=C(C#N)C(=O)C1CCCC1)c1cccnc1Cl` (centres unmarked) [Compound 7]: the LogP was 4.23^[a].

For the molecule `CCC(=O)C(C#N)=C(NC(C)C1CC1)c1cn(C)nc1C(F)F` (centres unmarked) [Compound 69], the LogP was 2.73^[a].

Regarding `CCCC(=O)C(C#N)=C(NC(C)C1CC1)c1cccnc1Cl` (centres unmarked) [Compound 43], the LogP was 3.25^[a].

As for `CCCC(=O)C(C#N)=C(NC(C)c1nc(C)c(C)s1)c1cn(C)nc1C(F)F` (racemic) [Compound 123], the LogP was 2.92^[a].

Regarding `Cc1cc(C(NC(C)c2nccs2)=C(C#N)C(=O)CC2CC2)n(C(F)F)n1` (centres unmarked) [Compound 97], the LogP is 3.09^[a].

On to `CCCC(=O)C(C#N)=C(NC(C)c1nccs1)c1cc(C)nn1C(F)F` (centres unmarked) [Compound 94], for which the LogP is 3.11^[a].

For `CCCC(=O)C(C#N)=C(NC(C)c1ccco1)c1cccnc1Cl` (racemic) [Compound 99], the LogP is 3.31^[a].

With `CC(NC(=C(C#N)C(=O)C1CCCC1)c1cccnc1Cl)C1CC1` (centres unmarked) [Compound 14], the LogP was 3.83^[a].

As to `COCC(=O)C(C#N)=C(NC(C)C(C)C)c1cccnc1Cl` (centres unmarked) [Compound 41], the LogP was 2.48^[a].

Take `CC(NC(=C(C#N)C(=O)Cc1ccccc1)c1cccnc1Cl)C1CC1` (centres unmarked) [Compound 8]: the LogP was 3.23^[a].

As to `CC(C)C(C)NC(=C(C#N)C(=O)C1CCCCO1)c1cccnc1Cl` (centres unmarked) [Compound 6], the LogP was 3.00^[a].

On to `CC(C)C(C)NC(=C(C#N)C(=O)C1(Cl)CC1)c1cccnc1Cl` (centres unmarked) [Compound 3], for which the LogP is 3.44^[a].

On to `CCCC(=O)C(C#N)=C(NC(C)CC(C)C)c1cccnc1Cl` (racemic) [Compound 115], for which the LogP is 3.99^[a].

Consider `CSCC(=O)C(C#N)=C(NC(C)C(C)C)c1cccnc1Cl` (centres unmarked) [Compound 46], for which the LogP was 3.13^[a].

On to `COC(C)C(=O)C(C#N)=C(NC(C)C(C)C)c1cccnc1Cl` (centres unmarked) [Compound 67], for which the LogP is 2.70^[a].

On to `CC(C)C(C)NC(=C(C#N)C(=O)CN1CCCC1)c1cccnc1Cl` (centres unmarked) [Compound 35], for which the LogP was 1.52^[a].

As for `CC(C)C(C)NC(=C(C#N)C(=O)C1CC1)c1cccnc1Cl` (centres unmarked) [Compound 71], the LogP is 3.39^[a].

As for `CC(C)C(C)NC(=C(C#N)C(=O)C1CCCCC1)c1cccnc1Cl` (centres unmarked) [Compound 53], the LogP is 4.50^[a].

`CC(C)C(C)NC(=C(C#N)C(=O)CNC1CC1)c1cn(C)nc1C(F)F` (centres unmarked) [Compound 58]: the LogP is 1.78^[a].

With `CCC(=O)C(C#N)=C(NC1CC1CC)c1cccnc1Cl` (centres unmarked) [Compound 68], the LogP was 3.13^[a].

As to `CC(C)C(C)NC(=C(C#N)C(=O)C1CC1C)c1cccnc1Cl` (centres unmarked) [Compound 61], the LogP is 3.80^[a].

In the case of `CC(NC(=C(C#N)C(=O)CC1CC1)c1cccnc1Cl)C1CC1` (centres unmarked) [Compound 54], the LogP is 3.31^[a].

On to `COCC(C)NC(=C(C#N)C(=O)CC1CC1)c1cc(C)nn1C(F)F` (centres unmarked) [Compound 96], for which the LogP is 3.11^[a].

With `CCCCC(=O)C(C#N)=C(NC1CC1CC)c1cccnc1Cl` (centres unmarked) [Compound 38], the LogP is 3.94^[a].

For `CC(C)C(=O)C(C#N)=C(NC(C)C(C)C)c1cccnc1Cl` (centres unmarked) [Compound 9], the LogP is 3.60^[a].

For the molecule `CCC(F)(F)C(=O)C(C#N)=C(NC(C)C(C)C)c1cccnc1Cl` (centres unmarked) [Compound 37], the LogP is 3.55^[a].

As for `CC(C)C(C)NC(=C(C#N)C(=O)CN1CCCC1)c1cn(C)nc1C(F)F` (centres unmarked) [Compound 66], the LogP is 1.31^[a].

Regarding `CC(C)C(C)NC(=C(C#N)C(=O)CNC1CC1)c1cccnc1Cl` (centres unmarked) [Compound 39], the LogP is 1.74^[a].

Consider `CCCC(=O)C(C#N)=C(NC(C)CC1CC1)c1cccnc1Cl` (racemic) [Compound 118], for which the LogP is 3.63^[a].

Regarding `CC(C)C(C)NC(=C(C#N)C(=O)c1ccco1)c1cccnc1Cl` (centres unmarked) [Compound 48], the LogP was 3.11^[a].

Turning to `COCC(=O)C(C#N)=C(NC(C)C1CC1)c1cccnc1Cl` (centres unmarked) [Compound 49], the LogP is 2.23^[a].

As to `CCCC(=O)C(C#N)=C(NC(C)C(=O)NC)c1cn(C)nc1C(F)F` (centres unmarked) [Compound 109], the LogP was 1.79^[a].

`CC(NC(=C(C#N)C(=O)C1CC1)c1cccnc1Cl)C1CC1` (centres unmarked) [Compound 42]: the LogP was 3.06^[a].

On to `CC(NC(=C(C#N)C(=O)c1ccco1)c1cccnc1Cl)C1CC1` (centres unmarked) [Compound 55], for which the LogP is 2.80^[a].

For `CCCC(=O)C(C#N)=C(NC(C)Cc1ccccc1)c1cn(C)nc1C(F)F` (centres unmarked) [Compound 111], the LogP is 3.55^[a].

Take `CC(C)C(C)NC(=C(C#N)C(=O)C1CCCC1)c1cn(C)nc1C(F)F` (centres unmarked) [Compound 78]: the LogP was 3.81^[a].

With `CC(C)C(C)NC(=C(C#N)C(=O)Cc1ccccc1)c1cccnc1Cl` (centres unmarked) [Compound 29], the LogP was 3.85^[a].

With `COCCC(=O)C(C#N)=C(NC(C)C(C)C)c1cccnc1Cl` (centres unmarked) [Compound 65], the LogP was 2.78^[a].

For the molecule `CC(C)C(C)NC(=C(C#N)C(=O)CCCCl)c1cccnc1Cl` (centres unmarked) [Compound 74], the LogP was 3.63^[a].

For `CCCC(=O)C(C#N)=C(NC(C)CC(C)C)c1cn(C)nc1C(F)F` (racemic) [Compound 127], the LogP is 3.63^[a].

`CC(C)C(C)NC(=C(C#N)C(=O)CCl)c1cn(C)nc1C(F)F` (centres unmarked) [Compound 32]: the LogP is 2.86^[a].

For the molecule `COCC(=O)C(C#N)=C(NC(C)c1nccs1)c1cn(C)nc1C(F)F` (centres unmarked) [Compound 82], the LogP is 1.76^[a].

Take `CCCC(=O)C(C#N)=C(NC(C)c1nc(C)c(C)s1)c1cccnc1Cl` (racemic) [Compound 105]: the LogP is 3.02^[a].

As to `CCNCC(=O)C(C#N)=C(NC(C)C(C)C)c1cn(C)nc1C(F)F` (centres unmarked) [Compound 60], the LogP was 1.63^[a].

Turning to `CNCC(=O)C(C#N)=C(NC(C)C(C)C)c1cccnc1Cl` (centres unmarked) [Compound 15], the LogP was 1.50^[a].

Regarding `CNCC(=O)C(C#N)=C(NC(C)C(C)C)c1cn(C)nc1C(F)F` (centres unmarked) [Compound 50], the LogP is 1.60^[a].

In the case of `CCCC(=O)C(C#N)=C(NC(C)Cc1ccccc1)c1cccnc1Cl` (centres unmarked) [Compound 108], the LogP was 3.83^[a].

`Cc1cc(C(NC(C)C(C)C)=C(C#N)C(=O)CC2CC2)n(C(F)F)n1` (centres unmarked) [Compound 93]: the LogP is 3.87^[a].

Source of the values: patent US9474275B2, “Cyanoenamines and their use as fungicides” (priority 2010, dated 2016).
